According to ChEMBL document CHEMBL5725497, “Cyclohexyl pyridine derivative” (2017):

Target: Substance-P receptor (Homo sapiens, UniProt P25103)
Assay: Receptor Binding Assay: The buffer solution for the receptor binding test was dispensed to the wells of a 96-well assay plate (Greiner) at 22.5 μL/well. DMSO solutions of a test compound, which were prepared at an 80-time higher concentration using 100% dimethyl sulfoxide (DMSO), were added to the wells at 2.5 μL/well (final concentrations of 1 nM to 100 nM), and the solutions were mixed. As a radiolabeled ligand, 125I-substance P (Substance P, [125I]Tyr8-, PerkinElmer) was used. 125I-substance P was diluted with the buffer solution for the receptor binding test to a concentration resulting in 125 pmol/25 μL/well and added to the 96-well assay plate, and the solutions were mixed. The membrane fraction prepared from the human NK1 receptor-expressing cells was diluted with the buffer solution for the receptor binding test to a concentration resulting in 8 to 10 μg/well, suspended until the suspension became in such a homogenous state that the suspension could flow through a 27 G injection needle smoothly and then added to the 96-well assay plate at 150 μL/well. Then, the plate was incubated at room temperature for 60 minutes while shaking the plate. […]

Sequence of Substance-P receptor (P25103 whole entry): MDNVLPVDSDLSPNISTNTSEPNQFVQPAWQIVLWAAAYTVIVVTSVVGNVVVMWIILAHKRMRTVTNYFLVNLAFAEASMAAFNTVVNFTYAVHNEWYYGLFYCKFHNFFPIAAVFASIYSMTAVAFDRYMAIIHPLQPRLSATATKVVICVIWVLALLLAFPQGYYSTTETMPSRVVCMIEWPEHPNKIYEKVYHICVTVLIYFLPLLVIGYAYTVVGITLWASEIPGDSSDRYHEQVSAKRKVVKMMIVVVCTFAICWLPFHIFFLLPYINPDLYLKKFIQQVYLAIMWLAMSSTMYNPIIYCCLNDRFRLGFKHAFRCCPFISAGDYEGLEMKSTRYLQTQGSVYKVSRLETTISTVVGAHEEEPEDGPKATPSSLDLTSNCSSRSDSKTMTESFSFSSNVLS

SMILES: Cc1cc(F)ccc1-c1cc(C2CCC(CC(=O)O)CC2)nc(Cl)c1N(C)C(=O)C(C)(C)c1cc(C(F)(F)F)cc(C(F)(F)F)c1 (stereo unspecified)
- IC50: 5.51 nM
